According to patent publication US20020002171A1, “Materials and methods for killing nematodes and nematode eggs” (priority 2000, published 2002):

Each molecule was assayed on Caenorhabditis elegans (assay: C. elegans L1 nematicidal dose response in 96-well plates, 5 day visual score (Example 2; same procedure for Example 7, Table 3)). Conditions: 0.3 μM, C. elegans L1, scored day 5.
Type: in vivo
Design: key to 5 Day Visual Score V1 / 5 Day Visual Score V2 / 5 Day Visual Score V3 / 5 Day Visual Score V4 / 5 Day Visual Score V6 / 5 Day Visual Score V5 / Initial HTS Run Visual Score / Follow-up HTS Run Visual Score: Dead: only stiff L1s (no movement); Dead (L4): worms are dead, but at a later larval stage; majority of worms are L1 (based on size) worms move when plate is tapped; majority of worms are L2 (based on size); majority of worms are L3 (based on size); majority of worms are L4 (based on size); AD: majority of worms are adult; #AD: 5 adult worms or less; B!: sterile (0-25 progeny); B: low broodsize (25-100 progeny); ˜B: moderate broodsize (100-250 progeny); <: reduced broodsize (250-500 progeny); OK: no effect (˜1000+ progeny)
Method: Caenorhabditis elegans adults were grown on Nematode Growth Medium (NGM) until they produced eggs, then the adults were removed.
The eggs were allowed to hatch, and the L1 larvae collected. See The Nematode Caenorhabditis elegans (1988) Cold Spring Harbor Laboratory Press. Using a Matrix Programmable Pipette, the L1s were distributed into 96-well tissue culture plates, 20 L1 in 50 μl NGM per well. Antibiotic/Antimyoticwas added to each well, and 1% by weight E. coli strain HB101. The subject anthelmintic compounds were stored at 5 mM in 100% DMSO. 0.7 μl of compounds 1-31 were added to the left-most column of wells to yield a final concentration of 70 μM in 1.4% DMSO, with 1.4% DMSO only as the control. The compounds were then subjected to 5 more 3-fold dilutions from left to right to yield 6 column concentrations of 70 μM, 23.3 μM, 7.8 μM, 2.6 μM, 0.9 μM, and 0.3 μM. Plates were stored in air-tight Rubbermaid plastic boxes at 20° C. The nematodes had cleared all control wells by day 4, and nematode viability was scored by visual examination under a 100× dissecting microsope on day 5. A visual viability scoring system was used as follows:
Column V1 has a compound concentration of 70 μM with sequential 3-fold dilutions reported in columns V2, V3, V4, V5, and V6, respectively, such that the V6 concentration was 0.3 μM.
The nematicidal activity of anthelmintic Compositions 48-168 were determined in accordance with the procedure outlined in Example 2.
In the case of `O=C(Nc1ccc(OC(F)(F)F)cc1)NC1CCC(c2nc(-c3ccccc3)no2)CC1` (stereo not shown) [AKC 107], the “5 Day Visual Score V6” value is reported as “L2/Dead(L”.
`CCCc1ccc(C(CC(=O)c2ccc(C)cc2)Nc2ccc(-c3ccccc3)cc2)cc1` (stereo not shown) [AKC 133] was tested, and the “5 Day Visual Score V6” value was “Dead”.

Same assay, conditions: 0.9 μM, C. elegans L1, scored day 5
With `CCCc1ccc(C(CC(=O)c2ccc(C)cc2)Nc2ccc(-c3ccccc3)cc2)cc1` (stereo not shown) [AKC 133] the “5 Day Visual Score V5” value was “Dead”.

Same assay, conditions: 2.6 μM, C. elegans L1, scored day 5
With `O=C(Nc1ccc(OC(F)(F)F)cc1)NC1CCC(c2nc(-c3ccccc3)no2)CC1` (stereo not shown) [AKC 107] the “5 Day Visual Score V4” value was “Dead(L4)”.
`CCCc1ccc(C(CC(=O)c2ccc(C)cc2)Nc2ccc(-c3ccccc3)cc2)cc1` (stereo not shown) [AKC 133] was tested, and the “5 Day Visual Score V4” value was “Dead”.

Same assay, conditions: 7.8 μM, C. elegans L1, scored day 5
`CCCc1ccc(C(CC(=O)c2ccc(C)cc2)Nc2ccc(-c3ccccc3)cc2)cc1` (stereo not shown) [AKC 133] was tested, and the “5 Day Visual Score V3” value was “Dead”.

Same assay, conditions: 23.3 μM, C. elegans L1, scored day 5
In the case of `O=C(Nc1ccc(OC(F)(F)F)cc1)NC1CCC(c2nc(-c3ccccc3)no2)CC1` (stereo not shown) [AKC 107], the “5 Day Visual Score V2” value is reported as “Dead(L2/L3)”.
In the case of `CCCc1ccc(C(CC(=O)c2ccc(C)cc2)Nc2ccc(-c3ccccc3)cc2)cc1` (stereo not shown) [AKC 133], the “5 Day Visual Score V2” value is reported as “Dead”.

Same assay, conditions: 70 μM, C. elegans L1, scored day 5
`O=C(Nc1ccc(OC(F)(F)F)cc1)NC1CCC(c2nc(-c3ccccc3)no2)CC1` (stereo not shown) [AKC 107] was tested, and the “5 Day Visual Score V1” value was “Dead”.
In the case of `CCCc1ccc(C(CC(=O)c2ccc(C)cc2)Nc2ccc(-c3ccccc3)cc2)cc1` (stereo not shown) [AKC 133], the “5 Day Visual Score V1” value is reported as “Dead”.

Same assay, conditions: Follow-up HTS run
In the case of `CCN(c1nc(NCc2ccccc2)ns1)C1CCCCC1` [compound 325], the “Follow-up HTS Run % Run” value is reported as 111%, the “Follow-up HTS Run Visual Score” value is reported as “L4/AD/B” and the “Follow-up HTS Run mOD” value is reported as 179 mOD.
For `CN(CCc1ccccc1)c1nc(NCc2ccccc2C(F)(F)F)ns1` [compound 322], the “Follow-up HTS Run % Run” value was 111%, the “Follow-up HTS Run Visual Score” value was “B (low broodsize (25-100 progeny))” and the “Follow-up HTS Run mOD” value was 178 mOD.
For `CCCCN(CC)c1nc(NCc2ccc(C(F)(F)F)cc2)ns1` [compound 308], the “Follow-up HTS Run % Run” value was 130% and the “Follow-up HTS Run mOD” value was 210 mOD.
With `Fc1ccc(CCNc2nsc(N3CCN(c4ccc(F)cc4)CC3)n2)cc1` [compound 240] the “Follow-up HTS Run % Run” value was 86%, the “Follow-up HTS Run Visual Score” value was “Dead” and the “Follow-up HTS Run mOD” value was 138 mOD.
For `CCCCCCCCCCNc1nsc(N(CCCC)Cc2ccccc2)n1` [compound 279], the “Follow-up HTS Run % Run” value was 131%, the “Follow-up HTS Run Visual Score” value was “Dead” and the “Follow-up HTS Run mOD” value was 211 mOD.
With `C=CCN(CC=C)c1nc(NCc2ccccc2C(F)(F)F)ns1` [compound 321] the “Follow-up HTS Run % Run” value was 116% and the “Follow-up HTS Run mOD” value was 186 mOD.

Same assay, conditions: Initial HTS run
For `CCN(c1nc(NCc2ccccc2)ns1)C1CCCCC1` [compound 325], the “Initial HTS Run % Run” value was 103%, the “Initial HTS Run Visual Score” value was “L3/L4/AD/B” and the “Initial HTS Run mOD” value was 113 mOD.
`CN(CCc1ccccc1)c1nc(NCc2ccccc2C(F)(F)F)ns1` [compound 322] was tested, and the “Initial HTS Run % Run” value was 94%, the “Initial HTS Run Visual Score” value was “B!-Clear-Few Eggs” and the “Initial HTS Run mOD” value was 103 mOD.
In the case of `CCCCN(CC)c1nc(NCc2ccc(C(F)(F)F)cc2)ns1` [compound 308], the “Initial HTS Run % Run” value is reported as 112% and the “Initial HTS Run mOD” value is reported as 123 mOD.
`Fc1ccc(CCNc2nsc(N3CCN(c4ccc(F)cc4)CC3)n2)cc1` [compound 240] was tested, and the “Initial HTS Run % Run” value was 101% and the “Initial HTS Run mOD” value was 111 mOD.
With `CCCCCCCCCCNc1nsc(N(CCCC)Cc2ccccc2)n1` [compound 279] the “Initial HTS Run % Run” value was 144%, the “Initial HTS Run Visual Score” value was “Dead” and the “Initial HTS Run mOD” value was 158 mOD.
`C=CCN(CC=C)c1nc(NCc2ccccc2C(F)(F)F)ns1` [compound 321] was tested, and the “Initial HTS Run % Run” value was 95%, the “Initial HTS Run Visual Score” value was “Dead/2L2” and the “Initial HTS Run mOD” value was 105 mOD.

Same assay, conditions: dose response, dilution V1, 5 day
For `CN(CCc1ccccc1)c1nc(NCc2ccccc2C(F)(F)F)ns1` [compound 322], the “5 Day Visual Score V1” value was “B! (sterile (0-25 progeny))”.

Same assay, conditions: dose response, dilution V1, day 5
`CCCCN(CC)c1nc(NCc2ccc(C(F)(F)F)cc2)ns1` [compound 308] was tested, and the “5 Day Visual Score V1” value was “L1”.
With `Fc1ccc(CCNc2nsc(N3CCN(c4ccc(F)cc4)CC3)n2)cc1` [compound 240] the “5 Day Visual Score V1” value was “Dead”.
In the case of `CCCCCCCCCCNc1nsc(N(CCCC)Cc2ccccc2)n1` [compound 279], the “5 Day Visual Score V1” value is reported as “Dead”.

Same assay, conditions: dose response, dilution V2, 5 day
For `CCN(c1nc(NCc2ccccc2)ns1)C1CCCCC1` [compound 325], the “5 Day Visual Score V2” value was “#AD/˜B”.

Same assay, conditions: dose response, dilution V2, day 5
`Fc1ccc(CCNc2nsc(N3CCN(c4ccc(F)cc4)CC3)n2)cc1` [compound 240] was tested, and the “5 Day Visual Score V2” value was “L1”.
`CCCCCCCCCCNc1nsc(N(CCCC)Cc2ccccc2)n1` [compound 279] was tested, and the “5 Day Visual Score V2” value was “Dead”.

Same assay, conditions: dose response, dilution V3, 5 day
For `CCN(c1nc(NCc2ccccc2)ns1)C1CCCCC1` [compound 325], the “5 Day Visual Score V3” value was “< (reduced broodsize (250-500 progeny))”.
With `CN(CCc1ccccc1)c1nc(NCc2ccccc2C(F)(F)F)ns1` [compound 322] the “5 Day Visual Score V3” value was “OK (no effect (˜1000+ progeny))”.

Same assay, conditions: dose response, dilution V3, day 5
In the case of `CCCCN(CC)c1nc(NCc2ccc(C(F)(F)F)cc2)ns1` [compound 308], the “5 Day Visual Score V3” value is reported as “#AD/˜B”.

Same assay, conditions: dose response, dilution V4, 5 day
For `CCN(c1nc(NCc2ccccc2)ns1)C1CCCCC1` [compound 325], the “5 Day Visual Score V4” value was “< (reduced broodsize (250-500 progeny))”.
In the case of `CN(CCc1ccccc1)c1nc(NCc2ccccc2C(F)(F)F)ns1` [compound 322], the “5 Day Visual Score V4” value is reported as “OK (no effect (˜1000+ progeny))”.
In the case of `C=CCN(CC=C)c1nc(NCc2ccccc2C(F)(F)F)ns1` [compound 321], the “5 Day Visual Score V4” value is reported as “OK (no effect (˜1000+ progeny))”.

Same assay, conditions: dose response, dilution V4, day 5
In the case of `CCCCN(CC)c1nc(NCc2ccc(C(F)(F)F)cc2)ns1` [compound 308], the “5 Day Visual Score V4” value is reported as “OK (no effect (˜1000+ progeny))”.
In the case of `Fc1ccc(CCNc2nsc(N3CCN(c4ccc(F)cc4)CC3)n2)cc1` [compound 240], the “5 Day Visual Score V4” value is reported as “˜B (moderate broodsize (100-250 progeny))”.
In the case of `CCCCCCCCCCNc1nsc(N(CCCC)Cc2ccccc2)n1` [compound 279], the “5 Day Visual Score V4” value is reported as “OK (no effect (˜1000+ progeny))”.

Same assay, conditions: dose response, dilution V5, 5 day
`CCN(c1nc(NCc2ccccc2)ns1)C1CCCCC1` [compound 325] was tested, and the “5 Day Visual Score V5” value was “< (reduced broodsize (250-500 progeny))”.
For `CN(CCc1ccccc1)c1nc(NCc2ccccc2C(F)(F)F)ns1` [compound 322], the “5 Day Visual Score V5” value was “OK (no effect (˜1000+ progeny))”.
For `C=CCN(CC=C)c1nc(NCc2ccccc2C(F)(F)F)ns1` [compound 321], the “5 Day Visual Score V5” value was “OK (no effect (˜1000+ progeny))”.

Same assay, conditions: dose response, dilution V5, day 5
In the case of `CCCCN(CC)c1nc(NCc2ccc(C(F)(F)F)cc2)ns1` [compound 308], the “5 Day Visual Score V5” value is reported as “OK (no effect (˜1000+ progeny))”.
With `Fc1ccc(CCNc2nsc(N3CCN(c4ccc(F)cc4)CC3)n2)cc1` [compound 240] the “5 Day Visual Score V5” value was “< (reduced broodsize (250-500 progeny))”.
`CCCCCCCCCCNc1nsc(N(CCCC)Cc2ccccc2)n1` [compound 279] was tested, and the “5 Day Visual Score V5” value was “OK (no effect (˜1000+ progeny))”.

Same assay, conditions: dose response, dilution V6, 5 day
With `CCN(c1nc(NCc2ccccc2)ns1)C1CCCCC1` [compound 325] the “5 Day Visual Score V6” value was “OK (no effect (˜1000+ progeny))”.
For `CN(CCc1ccccc1)c1nc(NCc2ccccc2C(F)(F)F)ns1` [compound 322], the “5 Day Visual Score V6” value was “OK (no effect (˜1000+ progeny))”.
`C=CCN(CC=C)c1nc(NCc2ccccc2C(F)(F)F)ns1` [compound 321] was tested, and the “5 Day Visual Score V6” value was “OK (no effect (˜1000+ progeny))”.

Same assay, conditions: dose response, dilution V6, day 5
For `CCCCN(CC)c1nc(NCc2ccc(C(F)(F)F)cc2)ns1` [compound 308], the “5 Day Visual Score V6” value was “OK (no effect (˜1000+ progeny))”.
For `Fc1ccc(CCNc2nsc(N3CCN(c4ccc(F)cc4)CC3)n2)cc1` [compound 240], the “5 Day Visual Score V6” value was “OK (no effect (˜1000+ progeny))”.
For `CCCCCCCCCCNc1nsc(N(CCCC)Cc2ccccc2)n1` [compound 279], the “5 Day Visual Score V6” value was “OK (no effect (˜1000+ progeny))”.
